According to US11180462B2, “Microbiocidal oxadiazole derivatives” (SYNGENTA PARTICIPATIONS AG, priority 2015, dated 2021):

What follows are molecules tested on Glomerella lagenarium (Colletotrichum lagenarium) (assay: Fungicidal activity against Glomerella lagenarium (Colletotrichum lagenarium) liquid culture / cucumber / preventative (anthracnose)). Details: Colletotrichum orbiculare; 20 ppm in the applied formulation; liquid culture (PDB), growth inhibition measured photometrically after 3 to 4 days; compared to untreated control; read-out: disease control.
Type: cell-based
Protocol: Mycelia fragments or conidia suspensions of a fungus prepared either freshly from liquid cultures of the fungus or from cryogenic storage, are directly mixed into nutrient broth. DMSO solutions of the test compound (max. 10 mg/ml) are diluted with 0.025% Tween20 by a factor of 50 and 10 μl of this solution is pipetted into a microtiter plate (96-well format). The nutrient broth containing the fungal spores/mycelia fragments is then added to give an end concentration of the tested compound. The test plates are incubated in the dark at 24° C. and 96% relative humidity. The inhibition of fungal growth is determined photometrically after 2 to 7 days, depending on the pathosystem, and percent antifungal activity relative to the untreated check is calculated.
Fungicidal activity against Glomerella lagenarium (Colletotrichum lagenarium) liquid culture/cucumber/Preventative (Anthracnose)
Conidia of the fungus from cryogenic storage are directly mixed into nutrient broth (PDB—potato dextrose broth). After placing a (DMSO) solution of test compound into a microtiter plate (96-well format), the nutrient broth containing the fungal spores is added.
The following compounds at 20 ppm in the applied formulation give at least 80% disease control in this test when compared to untreated control under the same conditions, which show extensive disease development.

| SMILES | inhibition of growth at 20 ppm |
| --- | --- |
| CON(C(=O)CC1CC1)C(C)c1ccc(-c2noc(C(F)(F)F)n2)cc1 (stereo not shown) [Compound 1.256, 2-cyclopropyl-N-methoxy-N-[1-[4-[5-(trifluoromethyl)-1,2,4-oxadiazol-3-yl]phenyl]ethyl]-acetamide] | ≥ 80% |
| CON(C(=O)C1CCCC1)C(C)c1ccc(-c2noc(C(F)(F)F)n2)cc1 (stereo not shown) [Compound 1.257] | ≥ 80% |
| CON(C(=O)CC(C)C)C(C)c1ccc(-c2noc(C(F)(F)F)n2)cc1 (stereo not shown) [Compound 1.261, N-methoxy-3-methyl-N-[1-[4-[5-(trifluoromethyl)-1,2,4-oxadiazol-3-yl]phenyl]ethyl]-butanamide] | ≥ 80% |
| CON(C(=O)C1CCC1)C(C)c1ccc(-c2noc(C(F)(F)F)n2)cc1 (stereo not shown) [Compound 1.262, N-methoxy-N-[1-[4-[5-(trifluoromethyl)-1,2,4-oxadiazol-3-yl]pheny1]ethyl]-cyclobutane-carboxamide] | ≥ 80% |
| CON(C(=O)C1CC1C)C(C)c1ccc(-c2noc(C(F)(F)F)n2)cc1 (stereo not shown) [Compound 1.265, N-methoxy-2-methyl-N-[1-[4-[5-(trifluoromethyl)-1,2,4-oxadiazol-3-yl]phenyl]ethyl]-cyclopropane-carboxamide] | ≥ 80% |
| CON(C(=O)C1(C)CC1)C(C)c1ccc(-c2noc(C(F)(F)F)n2)cc1 (stereo not shown) [Compound 1.268, N-methoxy-1-methyl-N-[1-[4-[5-(trifluoromethyl)-1,2,4-oxadiazol-3-yl]phenyl]ethyl]-cyclopropane-carboxamide] | ≥ 80% |
| C#CC(=O)N(OC)C(C)c1ccc(-c2noc(C(F)(F)F)n2)cc1 (stereo not shown) [Compound 1.269, N-methoxy-N-[1-[4-[5-(trifluoromethyl)-1,2,4-oxadiazol-3-yl]phenyl]ethyl]prop-2-ynamide] | ≥ 80% |
| CON(C(=O)C1(F)CC1)C(C)c1ccc(-c2noc(C(F)(F)F)n2)cc1 (stereo not shown) [Compound 1.271, 1-fluoro-N-methoxy-N-[1-[4-[5-(trifluoromethyl)-1,2,4-oxadiazol-3-yl]phenyl]ethyl]-cyclopropane-carboxamide] | ≥ 80% |
| CON(C(=O)C=CC(C)=O)C(C)c1ccc(-c2noc(C(F)(F)F)n2)cc1 (stereo not shown) [Compound 1.272, N-methoxy-4-oxo-N-[1-[4-[5-(trifluoromethyl)-1,2,4-oxadiazol-3-yl]phenyl]ethyl]pent-2-enamide] | ≥ 80% |
| CON(C(=O)CC(F)(F)F)C(C)c1ccc(-c2noc(C(F)(F)F)n2)cc1 (stereo not shown) [Compound 1.277, 3,3,3-trifluoro-N-methoxy-N-[1-[4-[5-(trifluoromethyl)-1,2,4-oxadiazol-3-yl]phenyl]ethyl]-propanamide] | ≥ 80% |
| CON(C(=O)c1ccoc1)C(C)c1ccc(-c2noc(C(F)(F)F)n2)cc1 (stereo not shown) [Compound 1.278, N-methoxy-N-[1-[4-[5-(trifluoromethyl)-1,2,4-oxadiazol-3-yl]phenyl]ethyl]furan-3-carboxamide] | ≥ 80% |
| CCCCC(=O)N(OC)C(C)c1ccc(-c2noc(C(F)(F)F)n2)cc1 (stereo not shown) [Compound 1.281, N-methoxy-N-[1-[4-[5-(trifiuoromethyl)-1,2,4-oxadiazol-3-yl]phenyl]ethyl]-pentanamide] | ≥ 80% |
| CC#CC(=O)N(Cc1ccc(-c2noc(C(F)(F)F)n2)cc1)OCCC [Compound 1.282, N-propoxy-N-[[4-[5-(trifluoromethyl)-1,2,4-oxadiazol-3-yl]phenyl]methyl]but-2-ynamide] | ≥ 80% |
| CCCON(Cc1ccc(-c2noc(C(F)(F)F)n2)cc1)C(=O)C(C)C [Compound 1.284, 2-methyl-N-propoxy-N-[[4-[5-(trifluoromethyl)-1,2,4-oxadiazol-3-yl]phenyl]methyl]-propanamide] | ≥ 80% |
| CC=CC(=O)N(Cc1ccc(-c2noc(C(F)(F)F)n2)cc1)OCCC [Compound 1.285, N-propoxy-N-[[4-[5-(trifluoromethyl)-1,2,4-oxadiazol-3-yl]phenyl]methyl]but-2-enamide] | ≥ 80% |
| CCCON(Cc1ccc(-c2noc(C(F)(F)F)n2)cc1)C(=O)C1CC1(F)F (stereo not shown) [Compound 1.286, 2,2-difluoro-N-propoxy-N-[[4-[5-(trifluoromethyl)-1,2,4-oxadiazol-3-yl]phenyl]methyl]-cyclopropane-carboxamide] | ≥ 80% |
| CCCON(Cc1ccc(-c2noc(C(F)(F)F)n2)cc1)C(=O)CCC [Compound 1.288, N-propoxy-N-[[4-[5-(trifluoromethyl)-1,2,4-oxadiazol-3-yl]phenyl]methyl]-butanamide] | ≥ 80% |

| SMILES | inhibition of growth at 20 ppm |
| --- | --- |
| CCCON(Cc1ccc(-c2noc(C(F)(F)F)n2)cc1)C(=O)CC1CC1 [Compound 1.289, 2-cyclopropyl-N-propoxy-N-[[4-[5-(trifluoromethyl)-1,2,4-oxadiazol-3-yl]phenyl]methyl]-acetamide] | ≥ 80% |
| CCCON(Cc1ccc(-c2noc(C(F)(F)F)n2)cc1)C(=O)C1CCCC1 [Compound 1.290, N-propoxy-N-[[4-[5-(trifluoromethyl)-1,2,4-oxadiazol-3-yl]phenyl]methyl]-cyclopentane-carboxamide] | ≥ 80% |
| CCCON(Cc1ccc(-c2noc(C(F)(F)F)n2)cc1)C(=O)C1=CCCC1 [Compound 1.291, N-propoxy-N-[[4-[5-(trifiuoromethyl)-1,2,4-oxadiazol-3-yl]phenyl]methyl]-cyclopentene-1-carboxamide] | ≥ 80% |
| CCCON(Cc1ccc(-c2noc(C(F)(F)F)n2)cc1)C(=O)C1CSC1 [Compound 1.292, N-propoxy-N-[[4-[5-(trifluoromethyl)-1,2,4-oxadiazol-3-yl]pheny1]methyl]-thietane-3-carboxamide] | ≥ 80% |
| CCCON(Cc1ccc(-c2noc(C(F)(F)F)n2)cc1)C(=O)CCOC [Compound 1.293, 3-methoxy-N-propoxy-N-[[4-[5-(trifluoromethyl)-1,2,4-oxadiazol-3-yl]phenyl]methyl]-propanamide] | ≥ 80% |
| CCCON(Cc1ccc(-c2noc(C(F)(F)F)n2)cc1)C(=O)CC(C)C [Compound 1.294, 3-methyl-N-propoxy-N-[[4-[5-(trifluoromethyl)-1,2,4-oxadiazol-3-yl]phenyl]methyl]-butanamide] | ≥ 80% |
| CCCON(Cc1ccc(-c2noc(C(F)(F)F)n2)cc1)C(=O)C1CCC1 [Compound 1.295, N-propoxy-N-[[4-[5-(trifluoromethyl)-1,2,4-oxadiazol-3-yl]phenyl]methyl]-cyclobutane-carboxamide] | ≥ 80% |
| CCCON(Cc1ccc(-c2noc(C(F)(F)F)n2)cc1)C(=O)COCC [Compound 1.297, 2-ethoxy-N-propoxy-N-[[4-[5-(trifluoromethyl)-1,2.4-oxadiazol-3-yl]phenyl]methyl]-acetamide] | ≥ 80% |
| CCCON(Cc1ccc(-c2noc(C(F)(F)F)n2)cc1)C(=O)C1CC1C (stereo not shown) [Compound 1.299, 2-methyl-N-propoxy-N-[[4-[5-(trifluoromethyl)-1,2,4-oxadiazol-3-yl]phenyl]methyl]-cyclopropane-carboxamide] | ≥ 80% |
| C=CC(=O)N(Cc1ccc(-c2noc(C(F)(F)F)n2)cc1)OCCC [Compound 1.301, N-propoxy-N-[[4-[5-(trifluoromethyl)-1,2,4-oxadiazol-3-yl]phenyl]methyl]-prop-2-enamide] | ≥ 80% |
| CCCON(Cc1ccc(-c2noc(C(F)(F)F)n2)cc1)C(=O)C1(C)CC1 [Compound 1.302, 1-methyl-N-propoxy-N-[[4-[5-(trifluoromethyl)-1,2,4-oxadiazol-3-yl]phenyl]methyl]-cyclopropane-carboxamide] | ≥ 80% |
| CCCON(Cc1ccc(-c2noc(C(F)(F)F)n2)cc1)C(=O)CC [Compound 1.303, N-propoxy-N-[[4-[5-(trifluoromethyl)-1,2,4-oxadiazol-3-yl]phenyl]methyl]-propanamide] | ≥ 80% |
| C=C(C)C(=O)N(Cc1ccc(-c2noc(C(F)(F)F)n2)cc1)OCCC [Compound 1.304, 2-methyl-N-propoxy-N-[[4-[5-(trifluoromethyl)-1,2,4-oxadiazol-3-yl]phenyl]methyl]-prop-2-enamide] | ≥ 80% |
| CCCON(Cc1ccc(-c2noc(C(F)(F)F)n2)cc1)C(=O)C1(F)CC1 [Compound 1.307, 1-fluoro-N-propoxy-N-[[4-[5-(trifluoromethyl)-1,2,4-oxadiazol-3-yl]phenyl]methyl]-cyclopropane-carboxamide] | ≥ 80% |
| CCCON(Cc1ccc(-c2noc(C(F)(F)F)n2)cc1)C(=O)C=CC(C)=O [Compound 1.310, 4-oxo-N-propoxy-N-[[4-[5-(trifluoromethyl)-1,2,4-oxadiazol-3-yl]phenyl]methyl]-pent-2-enamide] | ≥ 80% |
| CCCON(Cc1ccc(-c2noc(C(F)(F)F)n2)cc1)C(=O)C(CC)COC (stereo not shown) [Compound 1.311, 2-(methoxymethyl)-N-propoxy-N-[[4-[5-(trifluoromethyl)-1,2,4-oxadiazol-3-yl]phenyl]methyl]-butanamide] | ≥ 80% |
| CCCON(Cc1ccc(-c2noc(C(F)(F)F)n2)cc1)C(=O)CC(F)(F)F [Compound 1.318, 3,3,3-trifluoro-N-propoxy-N-[[4-[5-(trifluoromethyl)-1,2,4-oxadiazol-3-yl]phenyl]methyl]-propanamide] | ≥ 80% |
